These results are taken from patent publication US20220395496A1 (Hoffmann-La Roche Inc., priority 2019, published 2022).

The target in this test is T1, human TLR7 (Homo sapiens, UniProt Q9NYK1).
T1 sequence (Q9NYK1 27-1049): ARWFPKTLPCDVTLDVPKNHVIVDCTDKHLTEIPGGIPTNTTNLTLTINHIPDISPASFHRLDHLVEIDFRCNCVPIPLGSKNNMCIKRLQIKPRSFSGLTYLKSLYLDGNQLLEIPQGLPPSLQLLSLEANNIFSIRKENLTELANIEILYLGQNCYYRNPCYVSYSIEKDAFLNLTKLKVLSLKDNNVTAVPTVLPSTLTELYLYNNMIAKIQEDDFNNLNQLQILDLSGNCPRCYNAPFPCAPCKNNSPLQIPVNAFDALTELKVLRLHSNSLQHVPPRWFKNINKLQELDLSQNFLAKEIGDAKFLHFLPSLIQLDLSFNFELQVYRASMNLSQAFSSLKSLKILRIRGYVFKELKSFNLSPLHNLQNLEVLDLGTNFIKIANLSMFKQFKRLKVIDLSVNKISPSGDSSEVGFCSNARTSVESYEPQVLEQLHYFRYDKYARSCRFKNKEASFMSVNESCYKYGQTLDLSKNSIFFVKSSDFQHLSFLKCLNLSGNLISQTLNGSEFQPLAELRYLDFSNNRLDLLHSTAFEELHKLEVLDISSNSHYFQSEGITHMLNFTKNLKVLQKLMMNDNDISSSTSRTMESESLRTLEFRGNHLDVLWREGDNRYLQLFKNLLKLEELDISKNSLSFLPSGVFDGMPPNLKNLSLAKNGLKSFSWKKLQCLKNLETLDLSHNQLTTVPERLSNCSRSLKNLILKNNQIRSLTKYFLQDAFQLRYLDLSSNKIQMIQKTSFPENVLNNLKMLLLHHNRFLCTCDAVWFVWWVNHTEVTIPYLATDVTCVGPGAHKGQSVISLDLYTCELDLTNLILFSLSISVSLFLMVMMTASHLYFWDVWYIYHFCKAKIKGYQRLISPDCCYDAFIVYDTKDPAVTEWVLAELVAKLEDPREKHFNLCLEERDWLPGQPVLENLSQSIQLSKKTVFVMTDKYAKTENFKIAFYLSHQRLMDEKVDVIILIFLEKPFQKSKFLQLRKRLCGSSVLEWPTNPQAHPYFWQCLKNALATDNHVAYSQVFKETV
As to the kind of experiment: HEK293-Blue-hTLR-7 cells assay (SEAP reporter, R848 stimulation). The test is classed as cell-based. To be noted: HEK293-Blue-hTLR7 cells, R848, 20 hrs; lowest tested concentration 0.0032. How it is done: The following tests were carried out in order to determine the activity of the compounds of this invention in HEK293-Blue-hTLR-7/8/9 cells assay.
HEK293-Blue-hTLR-7 Cells Assay:
A stable HEK293-Blue-hTLR-7 cell line was purchased from InvivoGen (Cat. #: hkb-htlr7, San Diego, Calif., USA). These cells were originally designed for studying the stimulation of human TLR7 by monitoring the activation of NF-κB. A SEAP (secreted embryonic alkaline phosphatase) reporter gene was placed under the control of the IFN-β minimal promoter fused to five NF-κB and AP-1-binding sites. The SEAP was induced by activating NF-κB and AP-1 via stimulating HEK-Blue hTLR7 cells with TLR7 ligands. Therefore the reporter expression was declined by TLR7 antagonist under the stimulation of a ligand, such as R848 (Resiquimod), for incubation of 20 hrs. The cell culture supernatant SEAP reporter activity was determined using QUANTI-Blue™ kit (Cat. #: rep-qb1, Invivogen, San Diego, Calif., USA) at a wavelength of 640 nm, a detection medium that turns purple or blue in the presence of alkaline phosphatase.
HEK293-Blue-hTLR7 cells were incubated at a density of 250,000˜450,000 cells/mL in a volume of 170 μL in a 96-well plate in Dulbecco's Modified Eagle's medium (DMEM) containing 4.5 g/L glucose, 50 U/mL penicillin, […], […], 2 mM L-glutamine, 10% (v/v) heat-inactivated fetal bovine serum with addition of 20 μL test compound in a serial dilution in the presence of final DMSO at 1% and 10 μL of 20 uM R848 in above DMEM, perform incubation under 37° C. in a CO2 incubator for 20 hrs. Then 20 μL of the supernatant from each well was incubated with 180 μL Quanti-blue substrate solution at 37° C. for 2 hrs and the absorbance was read at 620-655 nm using a spectrophotometer. The signalling pathway that TLR7 activation leads to downstream NF-κB activation has been widely accepted, and therefore similar reporter assay was modified for evaluating TLR7 antagonist.
For orientation: IC50 means the concentration needed to halve the response being measured. A high value points to a need for much substance. Take `C[C@H]1C[C@@H](N2CCc3cc(N4CCNCC4)ccc3C2)CN(c2ccc(C#N)c3ncccc23)C1` (relative stereo) [Example 24, 5-[cis-3-methyl-5-(6-piperazin-1-yl-3,4-dihydro-1H-isoquinolin-2-yl)-1-piperidyl]quinoline-8-carbonitrile]: the concentration for half-maximal inhibition (IC50) was determined as 52 nM. On to `C[C@H]1C[C@@H](NCc2ccc(N3CCNCC3)cc2)CN(c2ccc(C#N)c3ncccc23)C1` [Example 1, 5-[(3S,5R)-3-methyl-5-[(4-piperazin-1-ylphenyl)methylamino]1-piperidyl]quinoline-8-carbonitrile], for which the IC50 amounted to 16 nM. For the molecule `C[C@H]1C[C@@H](NCc2ccc(C3CCNCC3)cc2)CN(c2ccc(C#N)c3ncccc23)C1` [Example 2, 5-[(3S,5R)-3-methyl-5-[[4-(4-piperidyl)phenyl]methylamino]-1-piperidyl]quinoline-8-carbonitrile], it took 32 nM to reach half-maximal inhibition (IC50). Molecule `C[C@H]1C[C@@H](NCc2ccc(N3CCNCC3)cc2)CN(c2ccc(C#N)c3nccnc23)C1` [Example 3, 8-[(3S,5R)-3-methyl-5-[(4-piperazin-1-ylphenyl)methylamino]-1-piperidyl]quinoxaline-5-carbonitrile] showed an IC50 of 30 nM. `C[C@H]1C[C@@H](NCc2ccc(N3CCNCC3)cc2F)CN(c2ccc(C#N)c3ncccc23)C1` [Example 4, 5-[(3R,58)-3-[(2-fluoro-4-piperazin-1-yl-phenyl)methylamino]-5-methyl-1-piperidyl]quinoline-8-carbonitrile]: the IC50 came to 13 nM. In turn, `C[C@H]1C[C@@H](NCc2ccc(N3CCNCC3)cn2)CN(c2ccc(C#N)c3ncccc23)C1` [Example 5, 5-[(3S,5R)-3-methyl-5-[(5-piperazin-1-yl-2-pyridyl)methylamino]-1-piperidyl]quinoline-8-carbonitrile] had an IC50 of 17 nM. `C[C@H]1C[C@@H](NCc2cccc(N3CCN(C)CC3)c2)CN(c2ccc(C#N)c3ncccc23)C1` [Example 6, 5-[(3S,5R)-3-methyl-5-[[3-(4-methylpiperazin-1-yl)phenyl]methylamino]-1-piperidyl]quinoline-8-carbonitrile] displayed an IC50 of 42 nM.

`C[C@H]1C[C@@H](NCc2ccc(N3CCN(C)CC3)cc2)CN(c2ccc(C#N)c3ncccc23)C1` [Example 7, 5-[(3S,5R)-3-methyl-5-[[4-(4-methylpiperazin-1-yl)phenyl]methylamino]-1-piperidyl]quinoline-8-carbonitrile] had an IC50 of 16 nM.

Molecule `C[C@H]1C[C@@H](NCc2cccc(N3CCNCC3)c2)CN(c2ccc(C#N)c3ncccc23)C1` [Example 8, 5-[(3S,5R)-3-methyl-5-[(3-piperazin-1-ylphenyl)methylamino]-1-piperidyl]quinoline-8-carbonitrile] gave an IC50 of 39 nM. `C[C@H]1C[C@@H](N(C)Cc2ccc(N3CCNCC3)cc2)CN(c2ccc(C#N)c3ncccc23)C1` [Example 9, 5-[(3S,5R)-3-methyl-5-[methyl-[(4-piperazin-1-ylphenyl)methyl]amino]-1-piperidyl]quinoline-8-carbonitrile] registered a half-maximal inhibitory concentration (IC50) of 15 nM.

The molecule `C[C@H]1C[C@@H](NCc2ccc(N3CCNCC3)nc2)CN(c2ccc(C#N)c3ncccc23)C1` [Example 10] registered an IC50 of 7 nM. `C[C@H]1C[C@@H](NCc2ccc3c(c2)CCNC3)CN(c2ccc(C#N)c3ncccc23)C1` [Example 11, 5-[(3S,5R)-3-methyl-5-(1,2,3,4-tetrahydroisoquinolin-6-ylmethylamino)-1-piperidyl]quinoline-8-carbonitrile]: the IC50 turned out to be 15 nM. For `C[C@H]1C[C@@H](N2Cc3ccc(N4CCNCC4)cc3C2)CN(c2ccc(C#N)c3ncccc23)C1` [Example 12, 5-[(3S,5R)-3-methyl-5-(5-piperazin-1-ylisoindolin-2-yl)-1-piperidyl]quinoline-8-carbonitrile], the IC50 amounted to 7 nM.

In turn, `C[C@H]1C[C@@H](NCc2ccc(N3CCC(N)C3)cc2)CN(c2ccc(C#N)c3ncccc23)C1` (stereo partly drawn) [Example 13, 5-[(3R,5S)-3-[[4-(3-aminopyrrolidin-1-yl)phenyl]methylamino]-5-methyl-1-piperidyl]quinoline-8-carbonitrile] had a half-maximal inhibitory concentration (IC50) of 19 nM.

The molecule `Cc1cc(-c2ccc(CN[C@@H]3C[C@H](C)CN(c4ccc(C#N)c5ncccc45)C3)cc2)cc(C)n1` [Example 15, 5-[(3R,5S)-3-[[4-(2,6-dimethyl-4-pyridyl)phenyl]methylamino]-5-methyl-1-piperidyl]quinoline-8-carbonitrile] gave an IC50 of 84 nM.

With `C[C@H]1C[C@@H](NCc2cnc(N3CCN(C)CC3)nc2)CN(c2ccc(C#N)c3ncccc23)C1` [Example 16, 5-[(3S,5R)-3-methyl-5-[[2-(4-methylpiperazin-1-yl)pyrimidin-5-yl]methylamino]-1-piperidyl]quinoline-8-carbonitrile], the half-maximal inhibitory concentration (IC50) came to 11 nM. With `C[C@H]1C[C@@H](NCc2cnc(N3CCNCC3)nc2)CN(c2ccc(C#N)c3ncccc23)C1` [Example 17, 5-[(3S,5R)-3-methyl-5-[(2-piperazin-1-ylpyrimidin-5-yl)methylamino]-1-piperidyl]quinoline-8-carbonitrile] the figure was 7 nM. For the molecule `C[C@H]1C[C@@H](NCc2ccc(N3CCN(C)CC3)cn2)CN(c2ccc(C#N)c3ncsc23)C1` [Example 18, 7-[(3S,5R)-3-methyl-5-[[5-(4-methylpiperazin-1-yl)-2-pyridyl]methylamino]-1-piperidyl]-1,3-benzothiazole-4-carbonitrile], the half-inhibitory concentration (IC50) is 11 nM. For `C[C@H]1C[C@@H](NCc2ccc(N3CCNCC3)cc2)CN(c2ccc(C#N)n3nccc23)C1` [Example 21, 4-[(3S,5R)-3-methyl-5-[(4-piperazin-1-ylphenyl)methylamino]-1-piperidyl]pyrazolo[1,5-a]pyridine-7-carbonitrile], half-maximal inhibition (IC50) required 63 nM.

On to `C[C@H]1C[C@@H](NCc2ccc(N3CCNCC3)cc2)CN(c2ccc(Cl)c3ncccc23)C1` [Example 22, (3R,5S)-1-(8-chloro-5-quinolyl)-5-methyl-N-[(4-piperazin-1-ylphenyl)methyl]piperidin-3-amine], for which the IC50 turned out to be 23 nM. With `C[C@H]1C[C@@H](N2Cc3cc(N4CCNCC4)cnc3C2)CN(c2ccc(C#N)c3ncccc23)C1` [Example 23, 5-[(3S,5R)-3-methyl-5-(3-piperazin-1-yl-5,7-dihydropyrrolo[3,4-b]pyridin-6-yl)-1-piperidyl]quinoline-8-carbonitrile] the figure was 23 nM; with `C[C@H]1C[C@@H](NCc2ncc(N3CCNCC3)cn2)CN(c2ccc(C#N)c3ncccc23)C1` [Example 25, 5-[(3S,5R)-3-methyl-5-[(5-piperazin-1-ylpyrimidin-2-yl)methylamino]-1-piperidyl]quinoline-8-carbonitrile], 15 nM; with `CC(N[C@@H]1C[C@H](C)CN(c2ccc(C#N)c3ncccc23)C1)c1ccc(N2CCNCC2)cc1` (stereo partly drawn) [Example 26, 5-[(3S,5R)-3-methyl-5-[1-(4-piperazin-1-ylphenyl)ethylamino]-1-piperidyl]quinoline-8-carbonitrile], 91 nM.
